Legend:
[1] = target: T1, Protein cereblon/CREB-binding protein (Homo sapiens, UniProt Q92793+Q96SW2); experiment: PROTAC activity at CBP/CRBN in human VCaP cells assessed as protein degradation incubated for 4 hrs by Western blot analysis; assay type: cell-based
[2] = target: T2, Protein cereblon/Histone acetyltransferase p300 (Homo sapiens, UniProt Q09472+Q96SW2); experiment: PROTAC activity at p300/CRBN in human VCaP cells assessed as maximal protein degradation at 1 uM incubated for 4 hrs by Western blot analysis relative to control; assay type: cell-based
Target sequence in this assay (Q09472 2-2414 limits assumed): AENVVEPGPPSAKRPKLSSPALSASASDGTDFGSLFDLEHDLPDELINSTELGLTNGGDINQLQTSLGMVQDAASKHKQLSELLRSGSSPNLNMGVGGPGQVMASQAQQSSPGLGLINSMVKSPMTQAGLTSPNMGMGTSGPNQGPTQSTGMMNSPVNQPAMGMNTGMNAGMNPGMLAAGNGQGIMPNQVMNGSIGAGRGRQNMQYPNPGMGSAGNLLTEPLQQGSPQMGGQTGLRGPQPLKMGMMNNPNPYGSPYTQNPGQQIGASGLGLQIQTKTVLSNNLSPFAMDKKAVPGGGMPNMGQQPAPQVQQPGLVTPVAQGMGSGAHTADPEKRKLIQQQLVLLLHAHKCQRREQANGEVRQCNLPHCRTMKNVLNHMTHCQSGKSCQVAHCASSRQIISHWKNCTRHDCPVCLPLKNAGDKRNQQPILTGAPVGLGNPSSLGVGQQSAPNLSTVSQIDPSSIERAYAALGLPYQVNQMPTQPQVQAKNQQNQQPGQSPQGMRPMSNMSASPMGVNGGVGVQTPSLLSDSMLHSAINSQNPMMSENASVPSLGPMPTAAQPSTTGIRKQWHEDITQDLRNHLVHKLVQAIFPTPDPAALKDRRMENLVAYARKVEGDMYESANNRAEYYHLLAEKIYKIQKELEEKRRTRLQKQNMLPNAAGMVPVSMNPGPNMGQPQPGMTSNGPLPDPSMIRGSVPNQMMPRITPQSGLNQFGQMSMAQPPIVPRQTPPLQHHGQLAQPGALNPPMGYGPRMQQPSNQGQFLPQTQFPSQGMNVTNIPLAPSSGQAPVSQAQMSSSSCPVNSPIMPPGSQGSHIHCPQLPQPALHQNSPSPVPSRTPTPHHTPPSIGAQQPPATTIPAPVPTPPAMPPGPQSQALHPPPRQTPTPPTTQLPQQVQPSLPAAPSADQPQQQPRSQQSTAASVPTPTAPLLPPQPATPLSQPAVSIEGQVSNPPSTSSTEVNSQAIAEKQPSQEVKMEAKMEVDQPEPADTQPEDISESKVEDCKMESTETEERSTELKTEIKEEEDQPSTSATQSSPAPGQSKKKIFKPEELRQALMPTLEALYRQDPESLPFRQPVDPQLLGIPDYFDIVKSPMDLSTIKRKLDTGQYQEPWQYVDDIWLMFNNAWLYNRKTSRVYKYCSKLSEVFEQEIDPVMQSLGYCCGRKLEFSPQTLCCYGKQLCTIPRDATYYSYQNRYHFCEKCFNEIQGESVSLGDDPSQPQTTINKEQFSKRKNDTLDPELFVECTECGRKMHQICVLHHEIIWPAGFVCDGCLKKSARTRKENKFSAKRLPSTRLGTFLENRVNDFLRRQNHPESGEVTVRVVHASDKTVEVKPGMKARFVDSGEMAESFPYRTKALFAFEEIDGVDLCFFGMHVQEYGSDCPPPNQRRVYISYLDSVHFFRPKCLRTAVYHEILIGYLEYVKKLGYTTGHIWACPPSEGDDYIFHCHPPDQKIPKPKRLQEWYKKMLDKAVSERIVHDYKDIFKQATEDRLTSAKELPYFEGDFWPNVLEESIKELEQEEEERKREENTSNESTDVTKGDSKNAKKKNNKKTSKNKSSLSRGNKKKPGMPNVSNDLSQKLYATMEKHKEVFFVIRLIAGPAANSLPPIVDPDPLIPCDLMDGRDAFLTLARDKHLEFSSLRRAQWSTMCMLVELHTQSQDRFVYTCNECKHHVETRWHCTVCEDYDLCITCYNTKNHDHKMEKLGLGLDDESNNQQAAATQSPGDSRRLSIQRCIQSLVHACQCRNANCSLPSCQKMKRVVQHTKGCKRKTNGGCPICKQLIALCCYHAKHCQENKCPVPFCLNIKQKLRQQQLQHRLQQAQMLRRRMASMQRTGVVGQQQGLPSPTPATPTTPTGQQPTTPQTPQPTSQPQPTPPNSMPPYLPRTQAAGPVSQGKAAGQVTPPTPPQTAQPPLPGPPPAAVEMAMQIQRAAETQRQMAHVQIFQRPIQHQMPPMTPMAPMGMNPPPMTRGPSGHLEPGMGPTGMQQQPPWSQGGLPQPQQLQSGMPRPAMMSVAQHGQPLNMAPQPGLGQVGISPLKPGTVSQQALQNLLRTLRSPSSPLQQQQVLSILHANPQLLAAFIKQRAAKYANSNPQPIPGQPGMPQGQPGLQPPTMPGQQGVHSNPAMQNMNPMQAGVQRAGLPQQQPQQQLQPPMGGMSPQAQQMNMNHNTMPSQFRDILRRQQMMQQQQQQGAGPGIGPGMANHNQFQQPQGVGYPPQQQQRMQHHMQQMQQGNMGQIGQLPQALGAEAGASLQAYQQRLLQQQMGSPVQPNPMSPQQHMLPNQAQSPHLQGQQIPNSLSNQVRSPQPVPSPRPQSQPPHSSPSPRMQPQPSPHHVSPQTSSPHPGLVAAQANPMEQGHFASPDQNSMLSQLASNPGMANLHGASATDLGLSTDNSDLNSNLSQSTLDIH
Target sequence in this assay (Q96SW2 whole entry partner): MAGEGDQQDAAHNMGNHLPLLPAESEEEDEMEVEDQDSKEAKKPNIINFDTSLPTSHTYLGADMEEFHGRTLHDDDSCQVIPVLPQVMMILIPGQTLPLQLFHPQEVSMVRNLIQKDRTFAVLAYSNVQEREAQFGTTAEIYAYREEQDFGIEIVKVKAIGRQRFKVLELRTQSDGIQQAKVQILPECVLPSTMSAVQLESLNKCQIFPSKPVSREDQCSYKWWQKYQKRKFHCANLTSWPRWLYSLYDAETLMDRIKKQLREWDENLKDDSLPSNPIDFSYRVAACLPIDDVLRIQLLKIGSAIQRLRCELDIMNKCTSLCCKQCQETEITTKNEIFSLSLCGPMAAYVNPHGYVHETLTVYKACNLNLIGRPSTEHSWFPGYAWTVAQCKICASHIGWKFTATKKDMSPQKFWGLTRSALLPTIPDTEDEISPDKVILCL

[3] = target: T2, Protein cereblon/Histone acetyltransferase p300; experiment: PROTAC activity at p300/CRBN in human VCaP cells assessed as protein degradation incubated for 4 hrs by Western blot analysis; assay type: cell-based
[4] = target: T1, Protein cereblon/CREB-binding protein; experiment: PROTAC activity at CBP/CRBN in human VCaP cells assessed as maximal protein degradation at 1 uM incubated for 4 hrs by Western blot analysis relative to control; assay type: cell-based
[5] = Oral plasma exposure in SCID mouse at 5 mg/kg, po measured after 6 hrs; assay type: ADME, organism-based; settings: for concentration at 6 h: SCID, plasma
[6] = Oral plasma exposure in SCID mouse at 5 mg/kg, po measured after 3 hrs; assay type: ADME, organism-based; settings: for concentration at 3 h: SCID, plasma
[7] = Oral plasma exposure in SCID mouse at 5 mg/kg, po measured after 1 hr; assay type: ADME, organism-based; settings: for concentration at 1 h: SCID, plasma

Structure (SMILES)	DC50 [1]	Emax [2]	DC50 [3]	Emax [4]	concentration at 6 h [5]	concentration at 3 h [6]	concentration at 1 h [7]	Cp ([5]; in vivo, po, 5 mg/kg, 6 h, BLD = below limit of detection)	Cp ([6]; in vivo, po, 5 mg/kg, 3 h, BLD = below limit of detection)	Cp ([7]; in vivo, po, 5 mg/kg, 1 h, BLD = below limit of detection)
CC(=O)N1CCc2c(c(N3CCCc4cc(-c5cnn(C)c5)c(C(F)F)cc43)nn2C2CCN(C(=O)CCCNc3cccc4c3C(=O)N(C3CCC(=O)NC3=O)C4=O)CC2)C1 (centres undefined)	1.4 nM	93%	1.2 nM	92%						
CC(=O)N1CCc2c(c(N3CCCc4cc(-c5cnn(C)c5)c(C(F)F)cc43)nn2C2CCN(CC3CN(c4ccc5c(c4)C(=O)N(C4CCC(=O)NC4=O)C5=O)C3)CC2)C1 (centres undefined)	1.1 nM	> 95%	0.4 nM	> 95%	7.4 ng/mL	16.7 ng/mL	23.8 ng/mL			
CC(=O)N1CCc2c(c(N3CCCc4cc(-c5cnn(C)c5)c(C(F)F)cc43)nn2[C@H]2CC[C@H](CN3CCN(c4ccc5c(c4)CN(C4CCC(=O)NC4=O)C5=O)CC3)CC2)C1 (some centres undefined)	0.1 nM	> 95%	< 0.1 nM	> 95%						
CC(=O)N1CCc2c(c(N3CCCc4cc(-c5cnn(C)c5)c(C(F)F)cc43)nn2C2CCN(C(=O)c3ccc4c(c3)C(=O)N(C3CCC(=O)NC3=O)C4=O)CC2)C1 (centres undefined)	> 1000 nM	< 50%	> 1000 nM	< 50%						
CC(=O)N1CCc2c(c(N3CCCc4cc(-c5cnn(C)c5)c(C(F)F)cc43)nn2C2CCN(C(=O)CCNc3cccc4c3C(=O)N(C3CCC(=O)NC3=O)C4=O)CC2)C1 (centres undefined)	8 nM	81%	18 nM	88%						
CC(=O)N1CCc2c(c(N3CCCc4cc(-c5cnn(C)c5)c(C(F)F)cc43)nn2[C@H]2CC[C@H](CN3CCN(c4cccc5c4C(=O)N(C4CCC(=O)NC4=O)C5=O)CC3)CC2)C1 (some centres undefined)	700 nM	33%	> 1000 nM	53%						
CC(=O)N1CCc2c(c(N3CCCc4cc(-c5cnn(C)c5)c(C(F)F)cc43)nn2C2CCN(C(=O)CCCCNc3ccc4c(c3)C(=O)N(C3CCC(=O)NC3=O)C4=O)CC2)C1 (centres undefined)	0.4 nM	> 95%	0.4 nM	> 95%						
CC(=O)N1CCc2c(c(N3CCCc4cc(-c5cnn(C)c5)c(C(F)F)cc43)nn2C2CCN(C(=O)CCNc3ccc4c(c3)C(=O)N(C3CCC(=O)NC3=O)C4=O)CC2)C1 (centres undefined)	0.9 nM	> 95%	0.4 nM	> 95%	2 ng/mL	3.2 ng/mL	5.1 ng/mL			
CC(=O)N1CCc2c(c(N3CCCc4cc(-c5cnn(C)c5)c(C(F)F)cc43)nn2C2CCN(C(=O)Nc3cccc4c3C(=O)N(C3CCC(=O)NC3=O)C4=O)CC2)C1 (centres undefined)	> 1000 nM	< 50%	> 1000 nM	< 50%						
CC(=O)N1CCc2c(c(N3CCCc4cc(-c5cnn(C)c5)c(C(F)F)cc43)nn2C2CCN(C(=O)CCCCNc3cccc4c3C(=O)N(C3CCC(=O)NC3=O)C4=O)CC2)C1 (centres undefined)	0.4 nM	> 95%	0.1 nM	> 95%	1.6 ng/mL	2.7 ng/mL	5.4 ng/mL			
CC(=O)N1CCc2c(c(N3CCCc4cc(-c5cnn(C)c5)c(C(F)F)cc43)nn2C2CCN(C3CN(c4ccc5c(c4)C(=O)N(C4CCC(=O)NC4=O)C5=O)C3)CC2)C1 (centres undefined)	1.3 nM	> 95%	1.1 nM	> 95%	613 ng/mL	962 ng/mL	1050 ng/mL			
CC(=O)N1CCc2c(c(N3CCCc4cc(-c5cnn(C)c5)c(C(F)F)cc43)nn2C2CCN(C3CC4(CCN(c5ccc6c(c5)C(=O)N(C5CCC(=O)NC5=O)C6=O)CC4)C3)CC2)C1 (centres undefined)	1.1 nM	> 95%	0.4 nM	> 95%	328 ng/mL	312 ng/mL	493 ng/mL			
CC(=O)N1CCc2c(c(N3CCCc4cc(-c5cnn(C)c5)c(C(F)F)cc43)nn2C2CCN(C(=O)c3cccc4c3C(=O)N(C3CCC(=O)NC3=O)C4=O)CC2)C1 (centres undefined)	> 1000 nM	< 50%	> 1000 nM	< 50%						
CC(=O)N1CCc2c(c(N3CCCc4cc(-c5cnn(C)c5)c(C(F)F)cc43)nn2C2CCN(C(=O)CCCCCNc3cccc4c3C(=O)N(C3CCC(=O)NC3=O)C4=O)CC2)C1 (centres undefined)	0.4 nM	> 95%	0.2 nM	115%						
CC(=O)N1CCc2c(c(N3CCCc4cc(-c5cnn(C)c5)c(C(F)F)cc43)nn2C2CCN(C3CCN(c4ccc5c(c4)C(=O)N(C4CCC(=O)NC4=O)C5=O)CC3)CC2)C1 (centres undefined)	1.1 nM	> 95%	0.6 nM	> 95%	82.2 ng/mL	122 ng/mL	122 ng/mL			
CC(=O)N1CCc2c(c(N3CCCc4cc(-c5cnn(C)c5)c(C(F)F)cc43)nn2C2CCN(C(=O)Nc3ccc4c(c3)C(=O)N(C3CCC(=O)NC3=O)C4=O)CC2)C1 (centres undefined)	< 0.2 nM	> 95%	< 0.2 nM	> 95%				Bld	Bld	Bld
CC(=O)N1CCc2c(c(N3CCCc4cc(-c5cnn(C)c5)c(C(F)F)cc43)nn2C2CCN(C(=O)CNc3ccc4c(c3)C(=O)N(C3CCC(=O)NC3=O)C4=O)CC2)C1 (centres undefined)	0.7 nM	> 95%	2 nM	> 95%	1.5 ng/mL	1.4 ng/mL	2.6 ng/mL			
CC(=O)N1CCc2c(c(N3CCCc4cc(-c5cnn(C)c5)c(C(F)F)cc43)nn2C2CCN(C3CC4(C3)CN(c3ccc5c(c3)C(=O)N(C3CCC(=O)NC3=O)C5=O)C4)CC2)C1 (centres undefined)	0.5 nM	> 95%	0.4 nM	> 95%	149 ng/mL	235 ng/mL	183 ng/mL			

— ChEMBL document CHEMBL5518240 (J Med Chem, 2024)
